Columns and labels:
[1] = biological target: T1, PD-L1 (Homo sapiens, UniProt Q9NZQ7); experiment: competitive ELISA of PD-1Fc binding to immobilized PD-L1
T1 construct: gene CD274; purified recombinant monomeric human PD-L1His (produced in plants); with PD-1 (PD-1Fc chimera)

[2] = biological target: T1, PD-L1; experiment: competitive ELISA of PD-1Fc binding to immobilized PD-L1; also partial competition with anti-PD-L1 mAb MIH1 on MDA-MB-231 cells (flow cytometry)

T1 sequence (Q9NZQ7 19-238 limits assumed): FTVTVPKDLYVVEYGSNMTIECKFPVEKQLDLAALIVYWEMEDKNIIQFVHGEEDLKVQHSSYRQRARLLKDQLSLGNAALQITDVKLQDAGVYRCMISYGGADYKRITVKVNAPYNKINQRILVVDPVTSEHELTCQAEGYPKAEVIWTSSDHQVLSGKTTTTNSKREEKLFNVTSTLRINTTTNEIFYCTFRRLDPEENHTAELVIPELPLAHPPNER
T1 sequence (Q15116 25-288 partner): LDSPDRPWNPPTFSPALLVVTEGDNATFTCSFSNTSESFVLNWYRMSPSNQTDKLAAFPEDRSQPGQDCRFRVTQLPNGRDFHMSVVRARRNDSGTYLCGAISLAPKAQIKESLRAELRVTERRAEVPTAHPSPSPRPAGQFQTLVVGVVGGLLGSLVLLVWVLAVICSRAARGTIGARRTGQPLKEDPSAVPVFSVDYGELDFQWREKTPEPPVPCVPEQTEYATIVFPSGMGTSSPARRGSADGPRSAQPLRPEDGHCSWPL

| Compound | IC50 [1] [µM] | IC50 [2] [µM] |
| --- | --- | --- |
| Cc1c(C(=O)Nc2ccc(N3C[C@@H](C)O[C@@H](C)C3)nc2)cccc1-c1ccc(OC(F)(F)F)cc1 [compound 28, sonidegib] | 481 |  |
| PDI-1 |  | 5.52 |

Source: article PMC11755407, “Advancements in drug discovery: integrating CADD tools and drug repurposing for PD-1/PD-L1 axis inhibition” (RSC Advances, 2025)
